Source: the supplement of paper PMC10307832

Assays:
Experiment in all cases: relative viability (nuclei count vs DMSO), 5 days (fraction); higher = more cells survive
BI-D1870 + OSI-027 = compound: CC(C)CCN1c2nc(Nc3cc(F)c(O)c(F)c3)ncc2N(C)C(=O)C1C [BI-D1870] + COc1cccc2cc(-c3nc([C@H]4CC[C@H](C(=O)O)CC4)n4ncnc(N)c34)[nH]c12 [OSI-027] (partner 0.5 µM)
In short: (§1)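 Relative viability equals treated-well nuclei counts divided by vehicle-well nuclei counts. Counts came from 4× images of lung cancer cell lines grown in 1536-well plates for 5 days after pin-tool dosing on the day after seeding. Dosing used one drug alone or a fixed anchor-drug dose plus five library-drug doses (not always all listed) in √10 steps, and values are medians of duplicate plates.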

BI-D1870 + Crizotinib = compound: CC(C)CCN1c2nc(Nc3cc(F)c(O)c(F)c3)ncc2N(C)C(=O)C1C [BI-D1870] + C[C@@H](Oc1cc(-c2cnn(C3CCNCC3)c2)cnc1N)c1c(Cl)ccc(F)c1Cl [Crizotinib] (partner 1 µM)
In short: as §1

BI-D1870 + Decitabine = compound: CC(C)CCN1c2nc(Nc3cc(F)c(O)c(F)c3)ncc2N(C)C(=O)C1C [BI-D1870] + Nc1ncn([C@H]2C[C@H](O)[C@@H](CO)O2)c(=O)n1 [Decitabine] (partner 2 µM)
In short: as §1

Zebularine + OSI-027 = compound: O=c1ncccn1[C@@H]1O[C@H](CO)[C@@H](O)[C@H]1O [Zebularine] + COc1cccc2cc(-c3nc([C@H]4CC[C@H](C(=O)O)CC4)n4ncnc(N)c34)[nH]c12 [OSI-027] (partner 0.5 µM)
In short: as §1

Cell Line	relative viability (BI-D1870 + OSI-027; first compound 0.04 µM)	relative viability (BI-D1870 + OSI-027; first compound 0.1265 µM)	relative viability (BI-D1870 + OSI-027; first compound 0.4 µM)	relative viability (BI-D1870 + OSI-027; first compound 1.265 µM)	relative viability (BI-D1870 + OSI-027; first compound 4 µM)	relative viability (BI-D1870 + Crizotinib; first compound 0.04 µM)	relative viability (BI-D1870 + Crizotinib; first compound 0.1265 µM)	relative viability (BI-D1870 + Crizotinib; first compound 0.4 µM)	relative viability (BI-D1870 + Crizotinib; first compound 1.265 µM)	relative viability (BI-D1870 + Crizotinib; first compound 4 µM)	relative viability (BI-D1870 + Decitabine; first compound 0.04 µM)	relative viability (BI-D1870 + Decitabine; first compound 0.1265 µM)	relative viability (BI-D1870 + Decitabine; first compound 0.4 µM)	relative viability (BI-D1870 + Decitabine; first compound 1.265 µM)	relative viability (BI-D1870 + Decitabine; first compound 4 µM)	relative viability (Zebularine + OSI-027; first compound 1 µM)	relative viability (Zebularine + OSI-027; first compound 3.162 µM)	relative viability (Zebularine + OSI-027; first compound 10 µM)	relative viability (Zebularine + OSI-027; first compound 31.62 µM)	relative viability (Zebularine + OSI-027; first compound 100 µM)
NCI-H1993	0.481	0.511	0.53	0.537	0.54	0.891	0.842	0.801	0.916	0.73	0.634	0.438	0.668	0.647	0.579	0.532	0.545	0.52	0.543	0.498
NCI-H520	0.226	0.205	0.252	0.291	0.2	1.05	0.687	0.766	0.824	0.476	0.406	0.494	0.597	0.649	0.471	0.281	0.23	0.266	0.298	0.239
NCI-H647	0.657	0.519	0.664	0.855	0.53	1.05	1.03	1.12	1.2	0.799	0.386	0.339	0.481	0.455	0.537	0.717	0.676	0.363	0.186	0.16
NCI-H1792	0.753	0.613	0.533	0.552	0.397	1.06	0.994	0.908	1.13	0.858	0.558	0.525	0.596	0.851	0.666	0.67	0.668	0.318	0.384	0.366
SK-LU-1	0.386	0.305	0.26	0.299	0.199	1.14	0.81	0.88	0.859	0.315	0.653	0.607	0.652	0.604	0.536	0.369	0.359	0.31	0.291	0.302
ChaGo-K-1	0.652	0.55	0.547	0.559	0.538	1.19	1.09	1.08	1.06	0.994	0.527	0.468	0.506	0.519	0.511	0.66	0.593	0.331	0.239	0.23
NCI-H1650	0.653	0.591	0.593	0.68	0.331	0.984	0.905	0.936	0.777	0.801	0.405	0.43	0.554	0.572	0.589	0.842	0.663	0.285	0.834	0.416
NCI-H2009	0.742	0.571	0.615	0.559	0.255	1.06	0.996	0.962	0.609	0.457	0.379	0.366	0.394	0.397	0.3	0.687	0.607	0.508	0.515	0.366
LOU-NH91	0.797	0.701	0.7	0.75	0.57	0.8	0.702	0.735	0.75	0.647	0.876	0.8	0.792	0.821	0.629	0.746	0.7	0.66	0.699	0.571
NCI-H2405	0.675	0.634	0.643	0.688	0.642	0.952	0.863	0.836	0.94	0.795	0.788	0.693	0.733	0.777	0.726	0.672	0.597	0.592	0.676	0.547
LCLC-97TM1	0.682	0.61	0.557	0.727	0.472	0.361	0.361	0.36	0.57	0.312	0.236	0.231	0.209	0.255	0.262	0.572	0.533	0.258	0.198	0.213
NCI-H596	0.797	0.704	0.95	0.572	0.5	0.97	0.982	0.981	1.01	1.16	1.06	0.857	0.956	1.14	0.999	0.696	0.78	0.593	0.708	0.559
NCI-H727	0.559	0.518	0.646	1.01	0.517	0.986	0.672	0.938	0.922	0.853	1.02	0.883	0.909	0.921	1.01	0.52	0.54	0.522	0.674	0.446
H3255	0.627	0.51	0.548	0.682	0.539	0.831	0.924	0.862	0.987	0.981	0.633	0.643	0.571	0.749	0.648	0.605	0.522	0.43	0.689	0.487
SK-MES-1	0.699	0.559	0.567	0.55	0.336	1.09	0.88	0.864	0.78	0.569	0.395	0.337	0.332	0.395	0.304	0.707	0.606	0.454	0.514	0.288
NCI-H1437	0.924	0.788	0.807	0.941	0.786	1.04	0.811	0.873	0.794	0.677	0.59	0.53	0.756	0.629	0.56	0.926	0.933	0.761	0.859	0.611
